# Measurements: PubChem BioAssay (NCI)
#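 These data come from cells grown in 96-well plates and exposed to compound for 48 hours at five concentrations. Abbreviation: GI50, concentration required for 50% inhibition of growth. At the TGI there is no net growth.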
# Test system: MDA-MB-468 breast
# Experiment: NCI-60 cell line screen, 48 h
Compound,GI50 [nM],TGI [nM]
C1=Cc2ccccc2Nc2ccccc21,4360,33700
COc1ccc2c(c1)C(=O)/C(=C/c1cccc(OCC(=O)Nc3nc4c(s3)CCCC4)c1)O2,188,353
COc1cc(-c2nc(Nc3nc4ccccc4[nH]3)nc(N)c2C#N)cc(OC)c1OC,1390,26600
CC[C@H](C)[C@H]1NC(=O)[C@@H](N[C@](C)(O)[C@@H](N)CC(C)C)[C@@H](C)OC(=O)[C@H](Cc2ccc(OC)cc2)N(C)C(=O)[C@@H]2CCCN2C(=O)[C@H](CC(C)C)NC(=O)[C@@H](C)C(=O)[C@H](C(C)C)OC(=O)C[C@@H]1O,21.7,261
COc1cc(C(=O)c2ccc3c(c2)OCO3)cc(OC)c1OC,586,3320
C/C=C(\C)C(=O)N[C@H]1CC[C@]2(C)C3CC[C@@]4(C)C(CC[C@@H]4C(C)N(C)C)C3CCC2[C@H]1OC(C)=O (stereo partly specified),1170,2630
Cc1nn(-c2nc3ccccc3s2)c(C)c1Oc1ccccc1O,1130,27400
Cn1cc(C2=C(c3cccc4ccccc34)C(=O)NC2=O)c2ccccc21,8240,> 25000
O=C1CC(c2ccc(N3CCOCC3)cc2)(c2ccsc2)NC(=O)C1Sc1ccccc1Cl (stereo unspecified),86700,> 100000
Cn1ccnc1C(=O)/C=C/c1ccc(C(=O)Nc2ccc(Cl)cc2)cc1,793,2800
CCN(CC)CCCC(C)Nc1cnc(C(=O)Nc2ccc(Cl)c3cccnc23)cn1 (stereo unspecified),1570,3490
C=C1C(=O)O[C@H]2[C@H]1CC/C(COC(=O)CCCCC(=O)OC/C1=C/CC[C@@]3(C)O[C@H]3[C@H]3OC(=O)C(=C)[C@@H]3CC1)=C\CC[C@@]1(C)O[C@@H]21,1660,5110
CN(C)c1ccc(N2Cc3ccccc3OC3=C2C(=O)c2c(O)ccc(O)c2C3=O)cn1,169,425
O=[N+]([O-])c1ccc(Br)c([N+](=O)[O-])c1,1670,3270
COc1cc2nc(-c3cnc(N(C)C)nc3)nc(NC3CCN(Cc4ccccc4)CC3)c2cc1OC,1380,2960
COc1ccc2nc(-c3cc(-c4cc(OC)c(OC)c(OC)c4)n[nH]3)[nH]c2c1,388,4960
COc1ccc(-c2[nH]c3ccccc3c2C=C(C#N)C#N)cc1,557,> 100000
O=C1NN(c2ccc(C(=O)O)cc2)C(=O)/C1=C\c1ccc([N+](=O)[O-])o1,22500,57400
COc1ccccc1OCC(=O)Nc1sc2c(c1C(N)=O)CCC2,> 100000,> 100000
CC(C)(C)NC(C1=CC(C)(C)c2ccccc2C1=O)c1ccccc1 (stereo unspecified),245,1660
CC1=CC(=NC(=O)CBr)C=C/C1=N\S(=O)(=O)c1ccccc1,2410,8010
COc1cc(NS(C)(=O)=O)ccc1Nc1c2ccc(Cl)cc2nc2c(OC)cccc12,136,484

Compound,GI50 [nM],TGI [nM]
CCC(C)(C)C(=O)O[C@H]1C[C@@H](C)C=C2C=C[C@H](C)[C@H](CC[C@@H]3C[C@@H](O)CC(=O)O3)[C@H]21,1620,6680
CCCN(CCC)C(=O)C1=Cc2ccc(-c3ccc(C(=O)N4CCCC4)cc3)cc2N=C(N)C1,2560,11800
O=c1cc(-c2ccccc2)[nH]c2cc(F)c(F)cc12,384,> 100000
O=c1c2cccc(Cl)c2sc2c(NCCCNCCO)nc3ccccc3c12,1190,2980
N#C/C(=C\c1ccc(-c2ccc(Cl)cc2)o1)C(=O)Nc1ncc(Cc2ccc(Cl)cc2)s1,2380,6490
Oc1ccc2cc(Br)ccc2c1-c1c(O)ccc2cc(Br)ccc12,3620,11700
COc1ccc(N(CC(=O)NCCC[Te]c2ccccc2)C(=O)c2ccccc2)cc1,4240,17600
CC[C@@H](C(=O)[C@@H](C)[C@@H](O)[C@H](C)[C@@H]1O[C@@H]([C@@H](CC)C(=O)O)CC[C@@H]1C)C1O[C@]2(C=CC(=O)[C@]3(CC[C@@](C)([C@H]4CC[C@](O)(CC)[C@H](C)O4)O3)O2)[C@H](C)C[C@@H]1C (stereo partly specified),85.7,1960
Cn1cncc1[C@@](N)(c1ccc(Cl)cc1)c1ccc2c(c1)c(-c1cccc(Cl)c1)cc(=O)n2C,1690,6760
C[C@@H]1CN(C(=O)c2ccc(NC(=O)c3cc(O[C@H](C)c4c(Cl)ccc(F)c4Cl)c(N)nn3)cc2)C[C@H](C)N1,2510,9870
CCOc1cccc(/C=N/NC(=O)c2ccc(Nc3ccnc(C(F)(F)F)c3)cc2)c1O,349,2960
COc1cccc(C2c3cc4c(cc3OC(C)(O)C2C)OCO4)c1O (stereo unspecified),4830,56600
CC1=C[C@H]2c3c(c(O)c(O)c4oc5c(C)cccc5c(=O)c34)[C@H](c3cc(O)c(O)c4oc5c(C)cccc5c(=O)c34)[C@H]2C(C)(C)C1,2620,7860
CCOc1c(Br)cc(C2C(C(=O)OC)=CN(C)C=C2C(=O)OC)cc1OC,37700,> 100000
CC1(C)CC[C@]23CC[C@]4(C)[C@H](CC[C@@H]5[C@@]6(C)CCCN(CO)C(C)(C)[C@@H]6CC[C@]54C)[C@H]2[C@H]1OC3,1810,4180
Cc1cc(N2CCCCC2)nc(N(CCCNc2ccnc3cc(Cl)ccc23)Cc2ccco2)n1,1720,3870
COC(=O)Nc1nc2ccc(Oc3ccc(NC(=O)Nc4cccc(C(=O)O)c4)cc3)cc2[nH]1,998,12800
c1ccc(Cn2cc3c(c2-c2ccccc2)CCc2cnoc2-3)cc1,2060,8020
Cn1cc(-c2nc(-c3c[nH]c4ncccc34)cs2)c2cc(F)ccc21,69,725
C[n+]1c(/C=C\c2ccc(Cl)cc2)ccc2ccccc21,2360,8370
Cn1nccc1Nc1nccc(-c2cc3c(s2)C(C)(C)N(CCN2CCOCC2)C3=O)n1,6100,> 83500
